Measurements published in publication PMC10113214 (Scientific Reports, 2023).

Key:
[1] = test system: HaCaT keratinocytes; assay: LDH cytotoxicity assay, HaCaT; type: cell-based, human; conditions: 150 µg/ml, 48 h, 3 independent experiments, n = 12
Description: (§1) Human HaCaT keratinocytes (DKFZ, Heidelberg, Germany)[47],[48], the human dermal fibroblast 46BR.1N cell line (ECACC, Sigma Aldrich Co.) and human primary dermal fibroblasts used in this study were routinely cultured in culture flasks (growth surface area: 25 cm^2) in DMEM-HG medium supplemented with 10% fetal bovine serum, 100 U/mL penicillin and […] streptomycin under standard conditions.
(§2) Briefly, the HaCaT and 46BR.1N cells were seeded in 96-well plates at a density of 5000 per well. Cell stimulation with RADA derivatives was performed using a protocol described before[49],[50]. Both assays were performed according to the manufacturers’ instructions (XTT- Roche, Cat. No. 11465015001; LDH- Takara, Cat. No. MK401).

[2] = test system: 46BR.1N fibroblasts; assay: LDH cytotoxicity assay, 46BR.1N; type: cell-based, human; conditions: 150 µg/ml, 48 h, 3 independent experiments, n = 12
Description: as §1, §2

[3] = Transmission electron microscopy of nanofibres; type: physicochemical; conditions: 1% gel in PBS diluted to 0.001%, uranyl acetate stain
Description: 1% gel solutions were prepared and incubated in PBS. The samples were then diluted to 0.001% concentration. A drop of solution was applied to a microcellulose membrane and stained with a 1.5% solution of uranyl acetate. The images were registered on a Tecnai Spirit BioTwin FEI Transmission Electron Microscope operating at 120 kV.

[4] = Rheology of hydrogels; type: physicochemical; conditions: 1% hydrogel, 37 °C
Description: Rheological parameters of the hydrogels were identified using an MCR 302 rheometer (Anton Paar GmbH, Graz, Austria). The rheometer was equipped with a CP50-1 stainless steel cone-and-plate system of 50 mm diameter, 1° cone angle and 50 µm cone truncation and a Peltier controlled temperature unit. An aliquot of 900 µL of 1% hydrogel was applied to a plate cone. The linear viscoelastic (LVE) region was determined through an amplitude sweeps: shear strain (0.01–100% at 6 rad s^−1) and shear stress (0.001–10 Pa at 6.28 rad s^−1). Frequency sweep were measured from 0.01 to 100 rad s^−1 at 2.5% strain. The frequency dependence of the storage modulus (G’) and loss modulus (G”) of the hydrogels were measured at 37 °C. All experiments were carried out in triplicate and reported as the mean of three repeats.

[5] = biological target: T1, Human neutrophil elastase (Homo sapiens, UniProt P08246); assay: Elastase enzymatic cleavage; type: in vitro ADME; conditions: human neutrophil elastase 150 nM, peptide 1 mM, 30 min, 37 °C; for identified fragments of peptides after elastase digestion (most abundant MS signals): 300 rpm, 0.1 M Tris HCl, 500 mM NaCl, 0.05% Triton X-100, 20 mM CaCl2 pH 7.5, HPLC and MALDI or LC-MS
T1 construct: purchased Sigma-Aldrich
T1 sequence (P08246 30-267): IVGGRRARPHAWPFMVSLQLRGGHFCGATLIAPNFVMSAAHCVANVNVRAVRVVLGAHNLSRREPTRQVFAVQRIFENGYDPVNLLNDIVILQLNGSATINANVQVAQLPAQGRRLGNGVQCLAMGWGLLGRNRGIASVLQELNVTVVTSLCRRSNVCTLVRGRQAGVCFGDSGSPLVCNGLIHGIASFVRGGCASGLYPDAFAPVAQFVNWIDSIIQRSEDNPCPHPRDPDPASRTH
Description: Human neutrophil elastase (EC No. 3.4.21.37, Sigma-Aldrich) was used to study peptide susceptibility to that enzyme. Peptides were dissolved in 0.1 M Tris HCl, 500 mM NaCl, 0.05% Triton X-100, 20 mM CaCl2 pH 7.5 buffer mixture. Peptides (final concentration 1 mM) were mixed with the enzyme (final concentration 150 nM) and incubated for 30 min. in a thermoshaker (37 °C, 300 rpm). The reaction was stopped by a 10% aqueous solution of TFA. The results were analyzed using HPLC and MALDI or LC–MS. Details of this experiment are described in the Supplementary Data.

[6] = test system: human primary dermal fibroblasts; type: cell-based
Description: Skin samples were obtained from patients of the Oncological Surgery Clinic in the Medical University of Gdańsk. The procedure was approved by the Independent Bioethics Commission for Research of the Medical University of Gdańsk (NKBBN/387/2014) and written informed consent was obtained from patients prior to surgery. All experiments were performed in accordance with guidelines and regulations. The isolation of fibroblasts was performed by explant culture as previously described. Briefly, skin samples were cut into small pieces, and the epidermis was removed by dispase digestion. To allow cells to grow out from the tissue samples, the human dermis was placed in 6-well plates in DMEM-HG medium (Sigma Aldrich Co., cat. D6429) supplemented with 10% of FBS (fetal bovine serum, Sigma-Aldrich Co., F9665), 100 U/mL of penicillin and 100 μg/mL streptomycin, and placed under standard conditions (humidified atmosphere with 5% CO2 at 37 °C). The medium was changed every 2–3 days.
RADA peptides were dissolved in water at a concentration of 1.0%, placed in culture inserts (0.4 μm) in 24-well plates, and incubated for at least 1 h at 37 °C to allow gelation. […] After 3 days of incubation, cells were stained with carboxyfluorescein succinimidyl ester (CFSE) (10 μM) and propidium iodide (100 µM) for 3 min. and then analyzed by fluorescence microscopy to assess their viability.

CC(=O)N[C@@H](CCCNC(=N)N)C(=O)N[C@@H](C)C(=O)N[C@@H](CC(=O)O)C(=O)N[C@@H](C)C(=O)N[C@@H](CCCNC(=N)N)C(=O)N[C@@H](C)C(=O)N[C@@H](CC(=O)O)C(=O)N[C@@H](C)C(=O)N[C@@H](CCCNC(=N)N)C(=O)N[C@@H](C)C(=O)N[C@@H](CC(=O)O)C(=O)N[C@@H](C)C(=O)N[C@@H](CCCNC(=N)N)C(=O)N[C@@H](C)C(=O)N[C@@H](CC(=O)O)C(=O)N[C@@H](C)C(=O)NCC(=O)NCC(=O)NCC(=O)N[C@@H](C)C(=O)N[C@@H](C)C(=O)N1CCC[C@H]1C(=O)N[C@H](C(=O)NCC(=O)NCC(=O)NCC(=O)N[C@@H](CCCCN)C(=O)NCC(=O)N[C@@H](Cc1c[nH]cn1)C(=O)N[C@@H](CCCCN)C(N)=O)C(C)C [RADA-KGHK, Ac-(Arg-Ala-Asp-Ala)4-Gly-Gly-Gly-Ala-Ala-Pro-Val-Gly-Gly-Gly-Lys-Gly-His-Lys-NH2]
cytotoxicity (LDH), slight effect [1]: ca. 15%
cytotoxicity (LDH), slight effect [2]: ca. 15%
fibre thickness (TEM) [3]: about 3 nm
magnitude of G’ compared with other gels ([4]; cone-plate, frequency sweep, mean of three repeats): around one-tenth of these values
shear strain above which the gel behaves like a liquid (G” > G’) ([4]; strain sweep, ω = 6.28 rad/s): above 25%
identified fragments of peptides after elastase digestion (most abundant MS signals) ([5]; fragment Ac-(RADA)4-GGG-AAPV-COOH): Ac-(RADA)4-GGG-AAPV-COOH
identified fragments of peptides after elastase digestion (most abundant MS signals) ([5]; fragment NH2-APV-GGG-KGHK-NH2): NH2-APV-GGG-KGHK-NH2
identified fragments of peptides after elastase digestion (most abundant MS signals) ([5]; fragment NH2-PV-GGG-KGHK-NH2): NH2-PV-GGG-KGHK-NH2
main / predominant fragments of elastase digestion ([5]; pH 7.5 buffer, HPLC, mass spectrometry): Ala^21Pro^22Val^23Gly^24Gly^25Gly^26Lys^27Gly^28His^29Lys^30
viability / dead cells on scaffold (CFSE / propidium iodide) [6]: most dead cells were observed
